We go through 24 compounds from publication PMC11633360 (ChemistryOpen, 2024).

Data set [1] in a line: DPPH radical scavenging activity. To be noted: DPPH 300 μM in methanol, 30 minutes, 25 °C. As to the method: The capacity of the chemical compounds to decolourize the purple colour of DPPH solution was investigated following a modified procedure of Turkoglu et al..[48] […] The solution was mixed gently before equilibration in a dark compartment for 30 minutes at 25 °C. […] The DPPH radical scavenging ability of each compound was estimated using the expression below: %DPPHscavenging=1-TestsampleAbs/BlankAbs×100

Data set [2] in a line: Nitric oxide (NO) scavenging activity. To be noted: sodium nitroprusside, pH 7.4, 2 hr, 37 °C, Griess reagent. As to the method: The NO radical mop‐up ability of the compounds was evaluated using Kurian et al.[49] previous protocol. […] After 2 hr equilibration at 37 °C, 0.250 mL of Griess reagent was added, and the absorbance of the coloured solution produced was measured at 545 nm against a blank solution lacking the test samples. Subsequently, the % NO scavenging antioxidant capacity of the compounds was expressed as: %Nitricoxidescavenging=1-TestsampleAbs/BlankAbs×100
For orientation: Nitrite, measured by Griess reagent, commonly stands in for NO production.

In data set [3] the test system is Mtb H37Rv. Kind of data set: microbe, parasite or virus in culture. Particulars: for MIC90: Mycobacterium tuberculosis, H37RV, read-out: GFP Assay – 10pt DR: MIC90. The format is cell-based, Mycobacterium tuberculosis.

Each structure is given as a SMILES string. In brackets after ≈: the same amount, converted by molar mass. Several values for one entry are separate records, joined by “and”; a condition that tells them apart may be missing. Equal values may be shown once.

A word on the IC50: it is the concentration at which inhibition is half-maximal. Turning to `Clc1ccc2c(Cl)ccnc2c1` [Compound 9, 4,7‐dichloroquinoline], the values for the IC50 in data set [1] and in data set [2] were more than 4000 µM and 820 µM, respectively. The MIC90 in data set [3] was more than 125 µM.
With `CC1CCN(c2n[nH]c3ncnc(N)c23)CC1` [Compound 8b, 3‐(4‐methylpiperidin‐1‐yl)‐1H‐pyrazolo[3,4–d]pyrimidin‐4‐amine], the IC50 in data set [1] was more than 4000 µM; in data set [2], 1010 µM.
Regarding `Nc1ncnc2c1c(N1CCN(CCO)CC1)nn2-c1ccnc2cc(Cl)ccc12` [10 g, 2‐(4‐(4‐Amino‐1‐(7‐Chloroquinolin‐4‐yl)‐1H‐Pyrazolo[3,4–d]pyrimidin‐3‐yl)piperazin‐1‐yl)ethanol], the IC50 is 2960 µM in data set [1] and 280 µM in data set [2]. In addition, in data set [3], the “GFP Assay – 10pt DR: MIC90” value was more than 125 µM. Also, the MIC90 in data set [3] is 62.5 µM (≈ 26.6 µg/mL).
Regarding `Nc1ncnc2c1c(N1CCCCC1)nn2-c1ccnc2cc(Cl)ccc12` [Compound 10b, 1‐(7‐Chloroquinolin‐4‐yl)‐3‐(piperidin‐1‐yl)‐1H‐Pyrazolo[3,4–d]pyrimidin‐4‐Amine], the half-maximal inhibitory concentration (IC50) in data set [1] and in data set [2] was more than 4000 µM throughout. Also, the MIC90 in data set [3] was more than 125 µM.
With `O=[N+]([O-])c1ccc(Nc2ccnc3cc(Cl)ccc23)cc1` [12 h, 7‐Chloro‐N‐(4‐Nitrophenyl)quinolin‐4‐Amine], the concentration for half-maximal inhibition (IC50) in data set [1] was 80 µM; in data set [2], 650 µM. Further, in data set [3], the “GFP Assay – 10pt DR: MIC90” value stood at 62.5 µM. Also, in data set [3], the MIC90 was more than 125 µM.
Taken in the same sequence, the figures for `Nc1ncnc2[nH]nc(N3CCCCC3)c12` [Compound 8a, 3‐(piperidin‐1‐yl)‐1H‐Pyrazolo[3,4–d]pyrimidin‐4‐Amine] were 3400 µM, 800 µM, 125 µM and more than 125 µM.
`Nc1ncnc2[nH]nc(N3CCOCC3)c12` [Compound 8c, 3‐Morpholino‐1H‐Pyrazolo[3,4–d]pyrimidin‐4‐Amine]: the half-inhibitory concentration (IC50) is more than 4000 µM in data set [1] and 880 µM in data set [2].
Taken in the same sequence, the figures for `O=C1O[C@H]([C@@H](O)CO)C(O)=C1O` [Ascorbic acid, reference compound] were 50 µM and more than 4000 µM.
As for `Nc1ncnc2[nH]ncc12` [Compound 4, 1H‐Pyrazolo[3,4–d]pyrimidin‐4‐Amine], the IC50 in data set [1] is more than 4000 µM; in data set [2], 780 µM.
The term melting point denotes the temperature of the solid-liquid transition. Compound `Clc1ccc(Nc2ccnc3cc(Cl)ccc23)cc1` [Compound 12c, 7‐Chloro‐N‐(4‐Chlorophenyl)quinolin‐4‐Amine] displayed a melting point of more than 250 °C. Moreover, the IC50 in data set [1] is more than 4000 µM. The compound further had a half-inhibitory concentration (IC50) in data set [2] of more than 4000 µM. Besides, in data set [3], the MIC90 is more than 125 µM.
In turn, `Clc1ccc2c(Nc3ccc(Br)cc3)ccnc2c1` [Compound 12d, N‐(4‐Bromophenyl)‐7‐Chloroquinolin‐4‐Amine] came in with a melting point of more than 250 °C. The compound further came in with an IC50 in data set [1] of more than 4000 µM. This compound returned an IC50 in data set [2] of more than 4000 µM. In addition, in data set [3], the MIC90 is more than 125 µM.
With `Cc1ccc(Nc2ccnc3cc(Cl)ccc23)cc1` [Compound 12e, 7‐Chloro‐N‐(p–tolyl)quinolin‐4‐Amine], the melting point was more than 250 °C. This compound displayed an IC50 in data set [1] of more than 4000 µM. In addition, the IC50 in data set [2] is more than 4000 µM.
Turning to `CN1CCN(c2nn(-c3ccnc4cc(Cl)ccc34)c3ncnc(N)c23)CC1` [Compound 10e, 1‐(7‐Chloroquinolin‐4‐yl)‐3‐(4‐Methylpiperazin‐1‐yl)‐1H‐Pyrazolo[3,4–d]pyrimidin‐4‐Amine], the IC50 in data set [1] and in data set [2] was more than 4000 µM throughout.
With `Nc1ncnc2c1cnn2-c1ccnc2cc(Cl)ccc12` [Compound 10a, 1‐(7‐Chloroquinolin‐4‐yl)‐1H‐Pyrazolo[3,4–d]pyrimidin‐4‐Amine], the IC50 in data set [1] was more than 4000 µM; in data set [2], 2590 µM. Further, the MIC90 in data set [3] was more than 125 µM.
Regarding `FC(F)(F)Oc1ccc(Nc2ccnc3cc(Cl)ccc23)cc1` [12 g, 7‐Chloro‐N‐(4‐(trifluoromethoxy)phenyl)quinolin‐4‐Amine], the melting point is more than 250 °C. This compound displayed an IC50 in data set [1] of more than 4000 µM. In addition, the 50% inhibitory concentration (IC50) in data set [2] is more than 4000 µM.
Take `Nc1ncnc2[nH]nc(N3CCN(CCO)CC3)c12` [Compound 8f]: the IC50 in data set [1] worked out at 3540 µM; in data set [2], 600 µM. Also, the MIC90 in data set [3] is more than 125 µM.
In the case of `Fc1ccc(Nc2ccnc3cc(Cl)ccc23)cc1` [Compound 12b, 7‐Chloro‐N‐(4‐Fluorophenyl)quinolin‐4‐Amine], the IC50 in data set [1] is more than 4000 µM; in data set [2], 1920 µM.
`CC1CCN(c2nn(-c3ccnc4cc(Cl)ccc34)c3ncnc(N)c23)CC1` [Compound 10c, 1‐(7‐chloroquinolin‐4‐yl)‐3‐(4‐methylpiperidin‐1‐yl)‐1H‐pyrazolo[3,4–d]pyrimidin‐4‐amine]: the IC50 in data set [1] turned out to be 2100 µM; in data set [2] it was 2780 µM. Moreover, in data set [3], the “GFP Assay – 10pt DR: MIC90” value is >125 µM and 125 µM. In data set [3], the MIC90 turned out to be 62.5 µM (≈ 24.6 µg/mL).
With `COc1ccc(Nc2ccnc3cc(Cl)ccc23)cc1` [Compound 12f, 7‐Chloro‐N‐(4‐Methoxyphenyl)quinolin‐4‐Amine], the IC50 in data set [1] was more than 4000 µM. Further, the IC50 in data set [2] was determined as 880 µM. Further, in data set [3], the “GFP Assay – 10pt DR: MIC90” value is more than 125 µM and the MIC90 was found to be 62.5 µM (≈ 17.8 µg/mL).
The corresponding values for `CN1CCN(c2n[nH]c3ncnc(N)c23)CC1` [Compound 8d, 3‐(4‐Methylpiperazin‐1‐yl)‐1H‐Pyrazolo[3,4–d]pyrimidin‐4‐Amine] are 580 µM, 800 µM, 62.5 µM and more than 125 µM.
As to `CCN1CCN(c2nn(-c3ccnc4cc(Cl)ccc34)c3ncnc(N)c23)CC1` [Compound 10f, 1‐(7‐Chloroquinolin‐4‐yl)‐3‐(4‐Ethylpiperazin‐1‐yl)‐1H‐Pyrazolo[3,4–d]pyrimidin‐4‐Amine], in data set [1], the IC50 was more than 4000 µM. This compound also returned an IC50 in data set [2] of 800 µM. In data set [3], the “GFP Assay – 10pt DR: MIC90” value is >125 µM and 125 µM; the MIC90 is 62.5 µM (≈ 25.6 µg/mL).
As for `Nc1ncnc2c1c(N1CCOCC1)nn2-c1ccnc2cc(Cl)ccc12` [Compound 10d, 1‐(7‐Chloroquinolin‐4‐yl)‐3‐Morpholino‐1H‐Pyrazolo[3,4–d]pyrimidin‐4‐Amine], the IC50 was more than 4000 µM in data set [1] and 2460 µM in data set [2]. For the same compound, the MIC90 in data set [3] was more than 125 µM.
As for `CCN1CCN(c2n[nH]c3ncnc(N)c23)CC1` [Compound 8e, 3‐(4‐Ethylpiperazin‐1‐yl)‐1H‐Pyrazolo[3,4–d]pyrimidin‐4‐Amine], in data set [1], the IC50 amounted to 930 µM. In data set [2], this compound showed an IC50 of 980 µM. For the same compound, in data set [3], the “GFP Assay – 10pt DR: MIC90” value was 62.5 µM and the MIC90 was more than 125 µM.
Compound `Clc1ccc2c(Nc3ccccc3)ccnc2c1` [Compound 12a, 7‐Chloro‐N‐Phenylquinolin‐4‐Amine] yielded a melting point of more than 250 °C. In data set [1], this compound displayed an IC50 of more than 4000 µM. In data set [2], this compound came in with an IC50 of 500 µM. For the same compound, in data set [3], the “GFP Assay – 10pt DR: MIC90” value was 62.5 µM and >125 µM; the MIC90 was found to be 125 µM (≈ 31.8 µg/mL).
